Assay results from patent publication US20160030562A1, “METHODS TO ENHANCE CANCER TREATMENT” (INTERNATIONAL BUSINESS MACHINES CORPORATION, priority 2011, published 2016).

Tested on: breast cancer
Assay: Treatment of Patient A (Stage II breast cancer)
Assay type: in vivo, human
Details: tamoxifen alone, 20 mg a day, year 3 of 5-year treatment
Method: Patient A has Stage II breast cancer. Patient A is in year 3 of a 5-year treatment with tamoxifen (tamoxifen prescribed at 20 mg a day for 5 years) but no regression in patient's breast cancer is apparent. Additional treatment is desired.
Cholesterol deprivation therapy is prescribed for Patient A. Patient A prefers a vegan diet, so Patient A's diet includes no meat or animal products, no saturated fats, and monounsaturated and polyunsaturated fats in moderation. Vegetable proteins, fruits, vegetables, and grains are primary food sources. A multivitamin with vitamin D and calcium is prescribed. […] CDT is prescribed for 8 months.
Patient A is treated with anti-CD cancer cell antibodies. Initial antibody loading dose of 1.3 g antibody preparation is administered as a two hour IV infusion, followed by weekly doses of about 0.6 g administered as a 30 minute infusion of the antibody preparation. Antibody and CDT treatments continue for 6 months.
As a result of combination treatment with CDT diet, statins, anti-CD cancer cell antibodies, and tamoxifen, Patient A's breast cancer regresses.

## CC/C(=C(\c1ccccc1)c1ccc(OCCN(C)C)cc1)c1ccccc1 [tamoxifen]
  regression of breast cancer: no regression
